Results: patent US10632206B2, “Zwitterionic polymers with therapeutic moieties” (priority 2008, dated 2020)

Experiments:
Assay in all cases: In vitro cytotoxicity, CellTiter-Glo cell viability
Assay type in all cases: cell-based
[1] = test system: colon (COLO 205) adenocarcinoma cells; conditions: Homo sapiens, 72 h incubation, CPT-equivalent concentrations
From the text: (§1) HPLC characterization of CPT liberation from CPT-polyMPC conjugates confirmed the importance of tailored linkers, and was informative for in vitro cell culture evaluation of conjugate toxicity against various cell lines. […] These CPT hydrolysis half-lives are, however, slower than those reported for PEGylated-SN38 conjugates, leading to an expected longer blood circulation time in vivo. […] Controls included a DMSO solution of CPT, and polyMPC itself in sterile distilled water. […] Importantly, the cytotoxicity was through the CPT only, since polyMPC by itself was non-toxic (FIG. 8).
(§2) Sodium azide, 4-(dimethylamino)pyridine (DMAP), N,N′-diisopropylethylamine (DIPEA), triethylamine (TEA), N-(3-Dimethylaminopropyl)-N′-ethylcarbodiimide hydrochloride (EDC), 2-bromopropionyl bromide, 2-bromoisobutyryl bromide, copper(I) bromide, 2,2′-bipyridine (bpy), 6-bromohexanoic acid, 2-[2-(2-chloroethoxy)ethoxy]ethanol, ethyl 2-bromoisobutyrate, 3-(trimethylsilyl)propargyl alcohol, methacyloyl chloride, mouse serum, and human plasma were purchased from Aldrich. 20(S)-camptothecin (CPT) was purchased from Acros. Chromium trioxide was purchased from Alfa Aesar. TFA was purchased from Fisher Scientific. Boc-Gly-OH was purchased from Advanced ChemTech. MPC monomer was synthesized in house. […] Cell viability was measured using CellTiter-Glo luminescent cell viability assays (Promega).
(§3) The COLO 205 and OVCAR 3 cancer cells were cultured in RPMI-1640 medium supplemented with 10% fetal bovine serum (FBS) or 20% FBS and 0.01 mg/ml bovine insulin, while MCF 7 cells were cultured in MEM medium supplemented with 10% FBS and 0.01 mg/ml bovine insulin. […] Cell viability post-treatment was measured using CellTiter-Glo luminescent cell viability assays (Promega) as per manufacturer's instructions on a FLUOstar OPTIMA plate reader (BMG LABTECH). The percentage camptothecin mediated toxicity was calculated with respect to untreated cells, and graphed to give dose response curves. IC50 values for each treatment were then calculated using the GraphPad Prism4 statistical analysis software.

[2] = test system: human breast (MCF-7) adenocarcinoma cells; conditions: MCF7, 72 h incubation, CPT-equivalent concentrations
From the text: as §1, §2, §3

[3] = test system: ovarian (OVCAR 3) adenocarcinoma cells; conditions: Homo sapiens, 72 h incubation, CPT-equivalent concentrations
From the text: as §1, §2, §3

`CC[C@@]1(O)C(=O)OCc2c1cc1n(c2=O)Cc2cc3ccccc3nc2-1` [CPT, 20(S)-Camptothecin] gave an IC50 [1] of 320 nM, an IC50 [2] of 290 nM and an IC50 [3] of 130 nM.
